The values that follow come from PubChem BioAssay AID1208 (EPA DSSTox, 2008).

Activity calls are given as the source filed them.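 How the source made its calls: active means at least one rat sex group has a carcinogenic potency value and tumor site recorded; inconclusive means only rat studies were judged inadequate by the national testing program; inactive means no potency or tumor site, with negative rat experiments.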

The data set has as its system rat chronic carcinogenicity bioassay, TD50. Description: DSSTox (CPDBAS) Carcinogenic Potency Database Summary Rat Bioassay Results. Particulars: for outcome: TD50_Rat_Note: no positive results; for Potency: stronger effect = lower value. The source says:
The Carcinogenic Potency Database (CPDB) is a unique and widely used international resource of the results of over 6500 chronic, long-term animal cancer tests on over 1500 chemical substances. The CPDB provides easy access to the bioassay literature, with qualitative and quantitative analyses of both positive and negative experiments that have been published over the past 50 years in the general literature and by the National Cancer Institute/National Toxicology Program. The CPDB standardizes the diverse literature of cancer bioassays that vary widely in protocol, histopathological examination and nomenclature, and in the published author's choices of what information to provide in their papers. Results are reported in the CPDB for tests in rats, mice, hamsters, dogs, and nonhuman primates, and are based on the most positive result among all experiments for each sex-species. The DSSTox CPDBAS (all species) file incorporates data from the CPDB Summary Tables for the full list of over 1500 chemical substances tested in at least one species. Summary bioassay results for Rat (TD50, tumor sites, male, female, both sexes) are provided in the CPDB Summary Tables and the DSSTox CPDBAS file for over 1200 chemical substances.
TD50 is a standardized quantitative measure of carcinogenic potency (analogous to an LD50) and is reported in the CPDB Summary Table for each species. Activity Score for actives is computed by mapping of LOG10 (1/TD50_Rat_mmol) activity values spanning range [MIN, MAX] onto Integer 1-100 Activity Score range, where 100 is highest potency and 1 is lowest: Activity Score = 100 * INTEGER[(log10(1/Activity) - MIN)/(MAX - MIN)]. If activity is reported but no TD50_Rat_mmol value is computed, such as for a mixture, the Activity Score is assigned the activity value "50". […] Target sites are reported for each sex-species group with a positive result in the CPDB on the basis of a positive author's opinion for the particular site, using all results from both the general literature and NCI/NTP bioassays. If a chemical has two or more target sites listed, the results may be from different experiments, and a single site may be a target organ in more than one experiment, as well. Blank entry in TargetSites field indicates no results reported.

Setting [1] is: TargetSites_Rat_Female: no positive results.
Setting [2] is: TargetSites_Rat_Female: mammary gland.
[3] abbreviates: TD50_Rat_Note: TD50 is harmonic mean of more than one positive test, TargetSites_Rat_Female: thyroid gland.
Where [4] appears, read: TD50_Rat_Note: TD50 is harmonic mean of more than one positive test, TargetSites_Rat_Female: stomach.
Setting [5] is: TargetSites_Rat_BothSexes: no positive results.
Where [6] appears, read: TD50_Rat_Note: TD50 is harmonic mean of more than one positive test, TargetSites_Rat_Female: liver.

For `CCCOC(=O)c1cc(O)c(O)c(O)c1`, the outcome under setting [1] is “inactive; no positive results”.

With `CCCCN(CCCC)N=O`, the Potency is 0.691 mg/kg/day.

`COP(=S)(OC)SCn1nnc2ccccc2c1=O`: the outcome under setting [1] is “inactive; no positive results”.

Regarding `CC(=O)Nc1ccc2c(c1)C(=O)c1ccccc1-2`, for the setting “TargetSites_Rat_Female: ear Zymbals gland, liver, mammary gland”, the Potency is 6.17 mg/kg/day.

As for `C=C(C)C`, the Potency under setting [1] was 3550 mg/kg/day.

Turning to `CCC(C(=O)NC(N)=O)c1ccccc1` (stereo not drawn), the outcome is “inactive; no positive results”.

Consider `CC(O)CN(CC(C)O)CC(C)O` (stereo not drawn), for which the outcome is “inactive; no positive results”.

On to `Cc1c(C)c2c(c(C)c1O)CCC(C)(CCCC(C)CCCC(C)CCCC(C)C)O2` (stereo not drawn), for which, under setting [1], the outcome was “inactive; no positive results”.

Take `OCc1ccco1`: the Potency under setting [1] is 9.6 mg/kg/day.

For `CCNc1nc(Cl)nc(NC(C)(C)C#N)n1`, the Potency under setting [2] was 6.33 mg/kg/day.

On to `CC1CN(/N=C/c2ccc([N+](=O)[O-])o2)C(=O)N1` (stereo not drawn), for which the Potency under setting [2] was 5.34 mg/kg/day.

In the case of `CCCCCCCCCc1ccc(OCCOCCO)cc1`, the outcome under setting [1] was inactive.

In the case of `O=Nc1ccc(Nc2ccccc2)cc1`, the Potency under setting [1] is 201 mg/kg/day.

On to `CCNC(=S)NCC`, for which, under setting [3], the Potency was 24 mg/kg/day.

`N#CN=C(N)N`: the outcome under setting [1] is “inactive; no positive results”.

For the compound `Cc1ccc([N+](=O)[O-])cc1`, where the note is “TargetSites_Rat_Female: clitoral gland”, the Potency is 257 mg/kg/day.

As for `ClC1C(Cl)C(Cl)C(Cl)C(Cl)C1Cl` (stereo not drawn), the Potency was 11.2 mg/kg/day. Further, under setting [1], the outcome is “inactive; no positive results”.

Take `O=NN1CC=CCC1`: the Potency (TD50_Rat_Note: TD50 is harmonic mean of more than one positive test, harmonic mean of TD50 includes a value for upper 99% confidence li, TargetSites_Rat_Female: esophagus, liver, stomach, vascular system) was 0.0601 mg/kg/day.

With `C=CCN=C=S`, the Potency under setting [1] was 96 mg/kg/day.

With `CCC1(CCC(C)C)C(=O)NC(=O)NC1=O`, the outcome is “inactive; no positive results”.

With `CCc1nc(N)nc(N)c1-c1ccc(Cl)cc1`, under setting [1], the outcome was “inactive; no positive results”.

As for `c1ccc2c(c1)[nH]c1cnccc12`, the outcome was “inactive; no positive results”.

Regarding `C[C@]12CC[C@@H]3c4ccc(OC(=O)Cc5ccc(N(CCCl)CCCl)cc5)cc4CC[C@H]3[C@@H]1CC[C@@H]2OC(=O)Cc1ccc(N(CCCl)CCCl)cc1`, under setting [1], the outcome was “inactive; no positive results”.

For the compound `C=CCN(CCO)N=O`, the Potency (TargetSites_Rat_Female: liver, nasal cavity) was 0.491 mg/kg/day.

Consider `NC(=O)NC1NC(=O)NC1=O` (stereo not drawn), for which the outcome under setting [1] was “inactive; no positive results”.

Turning to `NNc1nc(-c2ccccc2)cs1`, the result under setting [1] was inactive.

As to `Nc1ccc(Oc2ccc(N)cc2)cc1`, for the setting “TD50_Rat_Note: TD50 is harmonic mean of more than one positive test, TargetSites_Rat_Female: liver, thyroid gland”, the Potency is 9.51 mg/kg/day.

Turning to `CCCCCC(/C=C/C=C\CCCCCCCC(=O)OC)OO` (stereo not drawn), the outcome is “inactive; no positive results”.

On to `C=C(C)CCl`, for which the Potency under setting [4] was 113 mg/kg/day.

Turning to `CN(C)c1ccccc1`, under setting [1], the Potency is 125 mg/kg/day.

On to `C=CCN(CC=C)N=O`, for which the Potency (TD50_Rat_Note: TD50 is harmonic mean of more than one positive test, TargetSites_Rat_Female: nasal cavity) is 33.9 mg/kg/day.

As to `C1OC1C1CO1` (stereo not drawn), under setting [1], the result was inactive.

For `CCCCCCCCCCCC[N+](C)(C)[O-]`, the outcome under setting [1] is “inactive; no positive results”.

Take `[O]=[Bi]`: under setting [5], the outcome was inactive.

On to `O=NN1CCCCCCCCCCCC1`, for which the Potency under setting [6] was 10.9 mg/kg/day.

`O=C1CCO1`: under setting [4], the Potency was 1.46 mg/kg/day.

For the compound `Nc1ccc(S(=O)(=O)c2ccc(N)cc2)cc1`, the Potency under setting [1] is 22.4 mg/kg/day.

As for `CC(O)CNCC(C)O` (stereo not drawn), the outcome was “inactive; no positive results”.

As for `O=[As]O`, the outcome under setting [5] was inactive.

`CCOC(=O)CC(SP(=S)(OC)OC)C(=O)OCC` (stereo not drawn): the outcome under setting [1] was “inactive; no positive results”.

As for `COc1ccc(OC)c(/C=C/c2ccc(N)cc2)c1`, the Potency is 0.721 mg/kg/day.

Consider `[Na+]`, for which the outcome was “inactive; no positive results”.

In the case of `Cc1ncc([N+](=O)[O-])n1C`, the Potency under setting [2] was 17 mg/kg/day.

With `Cc1ccc(C)c(N)c1`, the Potency is 152 mg/kg/day.

Turning to `CN(C)N=Nc1ccccc1`, under “TargetSites_Rat_BothSexes: nervous system”, the Potency was 2.31 mg/kg/day.

Turning to `Clc1ccc(C(c2ccc(Cl)cc2)C(Cl)(Cl)Cl)cc1`, the Potency under setting [6] was 84.7 mg/kg/day.

Consider `Cn1cc[nH]c1=S`, for which the Potency under setting [3] is 1.14 mg/kg/day.

Regarding `Cc1ccc(N)cc1Cl`, the outcome under setting [1] was “inactive; no positive results”.

Turning to `O=C1CCc2ccccc2O1`, the Potency under setting [1] was 2970 mg/kg/day.

With `Nc1ccc([N+](=O)[O-])cc1O`, under setting [1], the Potency is 111 mg/kg/day.

Turning to `ClCOCCl`, the Potency is 0.00357 mg/kg/day.

For `[Cl-].[Cl-].[Hg+2]`, under setting [1], the Potency was 3.12 mg/kg/day.

With `CN(CC(O)CO)N=O` (stereo not drawn), the Potency (TargetSites_Rat_Female: esophagus, liver, lung, nasal cavity) is 0.646 mg/kg/day.

Turning to `COc1ccc(C(=O)/C(Br)=C\C(=O)O)cc1`, the Potency (TD50_Rat_Note: positive test results only by intraperitoneal or intravenous injection, TD50 is harmonic mean of more than one positive, TargetSites_Rat_Female: mammary gland) is 2.77 mg/kg/day.

On to `Cc1cc(N=Nc2ccccc2C)ccc1N`, for which the Potency under setting [6] is 4.04 mg/kg/day.

Take `C[C@]12C/C(=C/O)C(=O)C[C@@H]1CC[C@@H]1[C@@H]2CC[C@@]2(C)[C@H]1CC[C@]2(C)O`: under “TargetSites_Rat_Female: liver, lung, skin”, the Potency is 66.9 mg/kg/day.

For `C=C(C)[C@H]1Cc2c(ccc3c2O[C@@H]2COc4cc(OC)c(OC)cc4[C@@H]2C3=O)O1`, the outcome under setting [1] is “inactive; no positive results”.

For the compound `CCCCN(N=O)C(N)=O`, the Potency (TD50_Rat_Note: TD50 is harmonic mean of more than one positive test, greater than ten-fold variation among TD50 values for positive res, TargetSites_Rat_Female: esophagus, ear Zymbals gland, hematopoietic system, large intestine, lung, mammary gland, stomach, uterus, vagina) is 0.517 mg/kg/day.

With `Cc1ccccc1N`, the Potency (TD50_Rat_Note: TD50 is harmonic mean of more than one positive test, TargetSites_Rat_Female: bone, mammary gland, urinary bladder, vascular system) is 43.6 mg/kg/day.

As for `ON=C1CCCC1`, the Potency is 40.9 mg/kg/day.

Regarding `COc1c(Cl)c(Cl)c([N+](=O)[O-])c(Cl)c1Cl`, under setting [1], the outcome is “inactive; no positive results”.

Take `Cn1nc(CO)nc1NCCCOc1cccc(CN2CCCCC2)c1`: the Potency under setting [4] is 479 mg/kg/day.

In the case of `Cc1cc(C(C)(C)C)c(O)c(C(C)(C)C)c1`, the outcome under setting [1] was “inactive; no positive results”.

Consider `O=C(O)c1ccc(O)c(O)c1`, for which the outcome was “inactive; no positive results”.

With `Nc1ccc(N=Nc2ccc(-c3ccc(N=Nc4c(S(=O)(=O)O)cc5cc(S(=O)(=O)O)c(N=Nc6ccccc6)c(O)c5c4N)cc3)cc2)c(N)c1`, under setting [6], the Potency is 1.39 mg/kg/day.

Take `CCCNC(=O)NS(=O)(=O)c1ccc(Cl)cc1`: the outcome under setting [1] is “inactive; no positive results”.

On to `ClC(Br)Br`, for which, under setting [1], the outcome was “inactive; no positive results”.

Turning to `CCN(C=O)CC`, the outcome is “inactive; no positive results”.

In the case of `O[C@@H]([C@H](O)[C@@H](O)CBr)[C@@H](O)CBr`, the Potency (TD50_Rat_Note: positive test results only by intraperitoneal or intravenous injection, TD50 is harmonic mean of more than one positive, TargetSites_Rat_Female: mammary gland, peritoneal cavity) was 27.6 mg/kg/day.

For `CN(C#N)N=O`, the Potency (TargetSites_Rat_Female: stomach) was 0.48 mg/kg/day.

In the case of `NNc1nc(-c2ccc([N+](=O)[O-])cc2)cs1`, the Potency (TD50_Rat_Note: TD50 is harmonic mean of more than one positive test, TargetSites_Rat_Female: mammary gland) is 3.21 mg/kg/day.

Take `OCC(CO)N[C@H]1C[C@](O)(CO)[C@@H](O)[C@H](O)[C@H]1O`: the outcome under setting [1] is “inactive; no positive results”.

With `O=C1C(c2[nH]c3ccc(S(=O)(=O)O)cc3c2O)=Nc2ccc(S(=O)(=O)O)cc21`, the outcome under setting [5] was inactive.

On to `CC(=O)Nc1ccc(S(=O)(=O)O)c2cc(S(=O)(=O)O)c(N=Nc3ccc(N=Nc4ccc(S(=O)(=O)O)cc4)c4ccc(S(=O)(=O)O)cc34)c(O)c12`, for which, under setting [1], the outcome was “inactive; no positive results”.

With `Cc1ccc2cc3c(ccc4ccccc43)c3c2c1CC3`, the Potency (TD50_Rat_Note: TD50 is harmonic mean of more than one positive test, harmonic mean of TD50 includes a value for upper 99% confidence li, TargetSites_Rat_Female: mammary gland) is 0.491 mg/kg/day.

As to `COc1cc(NC(=O)C(N=Nc2ccc(-c3ccc(N=NC(C(C)=O)C(=O)Nc4cc(OC)c(Cl)cc4OC)c(Cl)c3)cc2Cl)C(C)=O)c(OC)cc1Cl` (stereo not drawn), the result under setting [5] was inactive.

In the case of `O=C1NCCN1/N=C/c1ccc([N+](=O)[O-])o1`, the Potency (TargetSites_Rat_Female: hematopoietic system, mammary gland) is 5.26 mg/kg/day.
